Measured values: patent US9802898B2, “Phenyl and tertbutylacetic acid substituted pyridinones having anti-HIV effects” (priority 2014, dated 2017)

system: HIV; assay: MT4 assay, antiviral HIV activity; type: cell-based; conditions: Human immunodeficiency virus 1, 96 h, read-out: HIV MT4 Assay IC50
Method: Antiviral HIV activity and cytotoxicity values for compounds of the invention from Table 1 were measured in parallel in the HTLV-1 transformed cell line MT-4 based on the method previously described (Hazen et al., 2007, In vitro antiviral activity of the novel, tyrosyl-based human immunodeficiency virus (HIV) type 1 protease inhibitor brecanavir (GW640385) in combination with other antiretrovirals and against a panel of protease inhibitor-resistant HIV (Hazen et al., “In vitro antiviral activity of the novel, tyrosyl-based human immunodeficiency virus (HIV) type 1 protease inhibitor brecanavir (GW640385) in combination with other antiretrovirals and against a panel of protease inhibitor-resistant HIV”, Antimicrob. Agents Chemother. 2007, 51: 3147-3154; and Pauwels et al., “Sensitive and rapid assay on MT-4 cells for the detection of antiviral compounds against the AIDS virus”, J. of Virological Methods 1987, 16: 171-185).
Luciferase activity was measured 96 hours later by adding a cell titer glo (Promega, Madison, Wis.). Percent inhibition of cell protection data was plotted relative to no compound control. Under the same condition, cytotoxicity of the compounds was determined using cell titer Glo™ (Promega, Madison, Wis.). IC50s were determined from a 10 point dose response curve using 3-4-fold serial dilution for each compound, which spans a concentration range >1000 fold.
These values are plotted against the molar compound concentrations using the standard four parameter logistic equation: y=((Vmax*x^n)/(K^n+x^n))+Y2
Y2=minimum y n=slope factor
Vmax=maximum y x=compound concentration [M]

Row | Structure (SMILES) | IC50 [nM]
1 | Cc1ccc(-c2c(C)c(C(=O)N[C@H]3CC[C@H](C)CC3)cc(=O)n2C(CC(C)(C)C)C(=O)O)cc1 (stereo partly drawn) [Example 1, 4,4-Dimethyl-2-(5-methyl-4-(((1r,4r)-4-methylcyclohexyl)carbamoyl)-2-oxo-6-(p-tolyl)pyridin-1(2H)-yl)pentanoic acid] | 350
2 | Cc1ccc(-c2c(C)c(-c3ccc(C)c(C)c3)cc(=O)n2C(CC(C)(C)C)C(=O)O)cc1 (stereo not drawn) [Example 2, 2-(4-(3,4-Dimethylphenyl)-5-methyl-2-oxo-6-(p-tolyl)pyridin-1(2H)-yl)-4,4-dimethylpentanoic acid] | 1090
3 | Cc1ccc(-c2c(C)c(-c3ccc(C)c(C)c3)c(NS(C)(=O)=O)c(=O)n2C(CC(C)(C)C)C(=O)O)cc1 (stereo not drawn) [Example 3, 2-(4-(3,4-dimethylphenyl)-5-methyl-3-(methylsulfonamido)-2-oxo-6-(p-tolyl)pyridin-1(2H)-yl)-4,4-dimethylpentanoic acid] | 310
4 | Cc1ccc(-c2c(C)cc(NS(C)(=O)=O)c(=O)n2C(CC(C)(C)C)C(=O)O)cc1 (stereo not drawn) [Example 4, 4,4-Dimethyl-2-(5-methyl-3-(methylsulfonamido)-2-oxo-6-(p-tolyl)pyridin-1(2H)-yl)pentanoic acid] | 33000
5 | Cc1ccc(-c2c(C)c(-c3nnc(N[C@H]4CC[C@H](C)CC4)o3)cc(=O)n2C(CC(C)(C)C)C(=O)O)cc1 (stereo partly drawn) [Example 6, 4,4-Dimethyl-2-(5-methyl-4-(5-(((1 r,4r)-4-methylcyclohexyl)amino)-1,3,4-oxadiazol-2-yl)-2-oxo-6-(p-tolyl)pyridin-1(2H)-yl)pentanoic acid] | 5600
6 | Cc1ccc(-c2c(C)c(C(=O)NC3CCCCC3)cc(=O)n2C(CC(C)(C)C)C(=O)O)cc1 (stereo not drawn) [Example 7, 2-(4-(cyclohexylcarbamoyl)-5-methyl-2-oxo-6-p-tolylpyridin-1(2H)-yl)-4,4-dimethylpentanoic acid] | 430
7 | Cc1ccc(-c2c(C)c(C(=O)NCC3CCCCC3)cc(=O)n2C(CC(C)(C)C)C(=O)O)cc1 (stereo not drawn) [Example 8, 2-(4-(cyclohexylmethylcarbamoyl)-5-methyl-2-oxo-6-p-tolylpyridin-1(2H)-yl)-4,4-dimethylpentanoic acid] | 840
8 | Cc1ccc(-c2c(C)c(C(=O)NCc3ccccc3)cc(=O)n2C(CC(C)(C)C)C(=O)O)cc1 (stereo not drawn) [Example 9, 2-(4-(benzylcarbamoyl)-5-methyl-2-oxo-6-p-tolylpyridin-1(2H)-yl)-4,4-dimethylpentanoic acid] | 3290
9 | Cc1ccc(-c2c(C)cc(NS(=O)(=O)CC3CCCCC3)c(=O)n2C(CC(C)(C)C)C(=O)O)cc1 (stereo not drawn) [Example 10, 2-(3-(cyclohexylmethylsulfonamido)-5-methyl-2-oxo-6-(p-tolyl)pyridin-1(2H)-yl)-4,4-dimethylpentanoic acid] | 1560
